Measured values as given in ChEMBL document CHEMBL1152252, “Synthesis, biological evaluation, structural-activity relationship, and docking study for a series of benzoxepin-derived estrogen receptor modulators” (Bioorg Med Chem, 2008).
Activity calls are given as the source filed them. No cut-off for these calls is given here.

Key:
MDA-MB-231 [1] = assay: Antiproliferative activity against hormone independent human MDA-MB-231 cells upto 100 nM after 72 hrs by MTT assay; format: functional, cell-based
MCF7 [2] = assay: Antiproliferative activity against estrogen receptor dependent human MCF7 cells after 72 hrs by MTT assay; format: functional, cell-based; conditions: MCF7, 72 h
Estrogen receptor beta = Estrogen receptor beta (Homo sapiens, UniProt Q92731); assay: biochemical
Description: Displacement of fluorescein labeled estradiol from human recombinant ERbeta expressed in baculovirus infected insect cells by fluorescence polarization assay

Estrogen receptor = molecular target: T1, Estrogen receptor (Homo sapiens, UniProt P03372); assay: biochemical
T1 sequence (P03372 whole entry): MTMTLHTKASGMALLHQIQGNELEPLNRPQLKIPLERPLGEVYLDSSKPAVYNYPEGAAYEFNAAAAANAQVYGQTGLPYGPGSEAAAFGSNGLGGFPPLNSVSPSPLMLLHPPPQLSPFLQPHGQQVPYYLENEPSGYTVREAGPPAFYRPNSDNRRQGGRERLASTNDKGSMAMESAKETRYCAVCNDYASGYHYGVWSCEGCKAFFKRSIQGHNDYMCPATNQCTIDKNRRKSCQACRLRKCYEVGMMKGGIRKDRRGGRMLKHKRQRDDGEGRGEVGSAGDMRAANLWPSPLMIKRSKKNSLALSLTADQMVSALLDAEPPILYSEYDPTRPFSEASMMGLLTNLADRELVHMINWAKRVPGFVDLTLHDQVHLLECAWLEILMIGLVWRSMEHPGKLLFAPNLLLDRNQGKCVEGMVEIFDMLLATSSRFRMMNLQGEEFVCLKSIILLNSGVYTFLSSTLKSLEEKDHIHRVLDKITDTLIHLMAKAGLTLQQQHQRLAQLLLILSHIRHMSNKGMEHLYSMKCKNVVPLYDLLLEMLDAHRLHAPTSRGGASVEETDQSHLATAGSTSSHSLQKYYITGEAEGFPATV
Description: Displacement of fluorescein labeled estradiol from human recombinant ERalpha expressed in baculovirus infected insect cells by fluorescence polarization assay

Ishikawa [3] = assay: Antiestrogenic activity in human Ishikawa cells assessed as inhibition of estrogen-induced alkaline phosphatase activity after 72 hrs; format: functional, cell-based
MDA-MB-231 [4] = assay: Antiproliferative activity against hormone independent human MDA-MB-231 cells after 72 hrs by MTT assay; format: functional, cell-based; conditions: MDA-MB-231, 72 h
Ishikawa [5] = assay: Estrogenic stimulatory activity in human Ishikawa cells assessed as alkaline phosphatase activity at 1 uM after 72 hrs in absence of estradiol; format: functional
MCF7 [6] = assay: Antiproliferative activity against estrogen receptor dependent human MCF7 cells at 10 uM after 72 hrs by LDH assay; format: functional

Chain of Estrogen receptor beta (Q92731 whole entry): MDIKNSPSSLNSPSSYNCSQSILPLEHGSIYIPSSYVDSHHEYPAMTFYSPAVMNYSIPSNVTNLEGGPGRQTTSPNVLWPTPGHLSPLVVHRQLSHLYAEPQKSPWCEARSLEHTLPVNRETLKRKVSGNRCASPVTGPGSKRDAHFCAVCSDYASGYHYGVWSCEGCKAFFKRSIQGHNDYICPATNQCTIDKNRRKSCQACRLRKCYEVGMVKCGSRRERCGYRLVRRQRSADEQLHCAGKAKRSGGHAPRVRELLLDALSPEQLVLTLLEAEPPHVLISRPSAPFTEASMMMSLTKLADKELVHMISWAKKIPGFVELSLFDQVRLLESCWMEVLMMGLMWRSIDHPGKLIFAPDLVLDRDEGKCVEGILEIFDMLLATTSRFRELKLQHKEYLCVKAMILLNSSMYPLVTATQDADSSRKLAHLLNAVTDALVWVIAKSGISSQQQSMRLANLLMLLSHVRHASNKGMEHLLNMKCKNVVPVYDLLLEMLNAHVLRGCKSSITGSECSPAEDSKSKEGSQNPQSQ

SMILES	Activity (MDA-MB-231 [1])	IC50 (MCF7 [2]) [nM]	IC50 (Estrogen receptor beta) [nM]	IC50 (Estrogen receptor) [nM]	IC50 (Ishikawa [3]) [nM]	IC50 (MDA-MB-231 [4]) [nM]	Activity (Ishikawa [5]) [%]	Activity (MCF7 [6]) [%]
CCC(=C(c1ccc(O)cc1)c1ccc(OCCN(C)C)cc1)c1ccccc1	inactive	107	–	–	–	–	–	–
Fc1ccc2c(c1)OCCC(c1ccccc1)=C2c1ccc(OCCN2CCCC2)cc1	inactive	1870	31	16.2	–	–	–	–
Oc1ccc(C2=C(c3ccc(OCCN4CCCC4)cc3)c3ccc(F)cc3OCC2)cc1	inactive	21.4	0.7	10.4	194	6750	9.7	–
Oc1ccc(C2=CCCOc3ccccc32)cc1	–	–	–	–	–	–	–	17
Oc1ccc(C2=C(c3ccc(OCCN4CCCCC4)cc3)c3ccc(F)cc3OCC2)cc1	inactive	156	8.78	6.5	–	–	–	–
c1ccc(C2=C(c3ccc(OCCN4CCCC4)cc3)c3ccccc3OCC2)cc1	inactive	1580	–	–	–	–	–	8
COc1ccc2c(c1)OCCC(c1ccc(O)cc1)=C2c1ccc(OCCN2CCCCC2)cc1	inactive	1540	–	–	–	–	–	–
CN(C)CCOc1ccc(C2=C(c3cccs3)CCOc3ccccc32)cc1	inactive	16700	–	–	–	–	–	–
Oc1ccc(C2=C(c3ccc(OCCN4CCCC4)cc3)c3ccc(O)cc3OCC2)cc1	inactive	11.9	2.9	8.4	20.8	2600	6	11
Fc1ccc(C2=C(c3ccc(OCCN4CCCC4)cc3)c3ccc(F)cc3OCC2)cc1	inactive	450	262	126	–	–	–	–
COc1ccc2c(c1)OCCC=C2c1ccc(O)cc1	–	–	–	–	–	–	–	17
Oc1ccc(C2=C(c3ccc(OCCN4CCCC4)cc3)CCOc3cc(F)ccc32)cc1	inactive	6500	17.3	5.57	216	–	23	–
Oc1cccc(C2=C(c3ccc(OCCN4CCCC4)cc3)c3ccc(F)cc3OCC2)c1	inactive	359	6	14	–	–	–	–
CC/C(=C(\c1ccccc1)c1ccc(OCCN(C)C)cc1)c1ccccc1 [TAMOXIFEN]	inactive	4120	–	–	–	–	16.5	–
CS(=O)(=O)c1ccc(C2=C(c3ccc(OCCN4CCCC4)cc3)c3ccc(F)cc3OCC2)cc1	inactive	4560	> 15000	> 15000	–	–	–	–
